Experimental data published in ChEMBL document CHEMBL2034855, “(18)F-labeled phenyldiazenyl benzothiazole for in vivo imaging of neurofibrillary tangles in Alzheimer's disease brains” (ACS Med Chem Lett, 2012).
Values belong to the molecule of their own block, whether it stands above or below them. The source made the active and inactive calls. No cut-off for these calls is given here.

Legend:
[1] = molecular target: T1, Microtubule-associated protein tau (Homo sapiens, UniProt P10636); assay: Binding affinity to recombinant human tau expressed in Escherichia coli after 30 mins by fluorescence assay
T1 sequence (P10636 whole entry): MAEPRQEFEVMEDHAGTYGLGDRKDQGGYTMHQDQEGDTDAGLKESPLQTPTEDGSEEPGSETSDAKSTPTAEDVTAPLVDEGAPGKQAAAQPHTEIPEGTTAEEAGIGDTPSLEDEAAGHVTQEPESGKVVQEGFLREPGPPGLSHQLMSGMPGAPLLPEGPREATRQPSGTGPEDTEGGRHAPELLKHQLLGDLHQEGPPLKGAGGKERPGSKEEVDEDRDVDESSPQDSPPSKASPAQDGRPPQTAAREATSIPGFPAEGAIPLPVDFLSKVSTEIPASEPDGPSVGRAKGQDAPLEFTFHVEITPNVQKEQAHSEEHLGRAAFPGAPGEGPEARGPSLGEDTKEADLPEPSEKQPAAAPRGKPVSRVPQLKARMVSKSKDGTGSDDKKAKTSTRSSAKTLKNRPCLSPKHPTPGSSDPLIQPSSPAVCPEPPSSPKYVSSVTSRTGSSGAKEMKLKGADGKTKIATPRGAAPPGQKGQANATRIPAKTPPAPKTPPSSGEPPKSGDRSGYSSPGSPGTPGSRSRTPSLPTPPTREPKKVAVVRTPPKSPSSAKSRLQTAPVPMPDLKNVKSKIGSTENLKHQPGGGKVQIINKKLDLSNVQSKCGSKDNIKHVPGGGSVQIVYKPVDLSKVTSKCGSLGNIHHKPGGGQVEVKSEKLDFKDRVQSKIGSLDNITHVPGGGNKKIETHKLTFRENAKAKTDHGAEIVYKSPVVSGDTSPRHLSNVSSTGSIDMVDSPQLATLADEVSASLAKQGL

[2] = Binding affinity to amyloid beta (1 to 42) aggregates after 30 mins by fluorescence assay
Brain [3] = assay: Drug uptake in normal human brain at 92.5 kBq after 2 hrs by […]; type: ADME, tissue-based
Blood [4] = assay: Biodistribution in mouse blood at 64.5 kBq, iv measured 2 mins post injection by gamma counting; type: ADME, organism-based; details: in vivo
Liver [5] = assay: Biodistribution in mouse liver at 64.5 kBq, iv measured 2 mins post injection by gamma counting; type: ADME, organism-based; details: in vivo
Kidney [6] = assay: Biodistribution in mouse kidney at 64.5 kBq, iv measured 2 mins post injection by gamma counting; type: ADME, organism-based; details: in vivo
Intestine [7] = assay: Biodistribution in mouse intestine at 64.5 kBq, iv measured 2 mins post injection by gamma counting; type: ADME, organism-based; details: in vivo
Spleen [8] = assay: Biodistribution in mouse spleen at 64.5 kBq, iv measured 2 mins post injection by gamma counting; type: ADME, organism-based; details: in vivo
Pancreas [9] = assay: Biodistribution in mouse pancreas at 64.5 kBq, iv measured 2 mins post injection by gamma counting; type: ADME, organism-based; details: in vivo
Heart [10] = assay: Biodistribution in mouse heart at 64.5 kBq, iv measured 2 mins post injection by gamma counting; type: ADME, organism-based; details: in vivo
Lung [11] = assay: Biodistribution in mouse lung at 64.5 kBq, iv measured 2 mins post injection by gamma counting; type: ADME, organism-based; details: in vivo
Stomach [12] = assay: Biodistribution in mouse stomach at 64.5 kBq, iv measured 2 mins post injection by gamma counting; type: ADME, organism-based; details: in vivo
Brain [13] = assay: Biodistribution in mouse brain at 64.5 kBq, iv measured 2 mins post injection by gamma counting; type: ADME, organism-based; details: in vivo
Bone [14] = assay: Biodistribution in mouse bone at 64.5 kBq, iv measured 2 mins post injection by gamma counting; type: ADME, organism-based, Bone element; details: in vivo
Blood [15] = assay: Biodistribution in mouse blood at 64.5 kBq, iv measured 10 mins post injection by gamma counting; type: ADME, organism-based; details: in vivo
Liver [16] = assay: Biodistribution in mouse liver at 64.5 kBq, iv measured 10 mins post injection by gamma counting; type: ADME, organism-based; details: in vivo
Kidney [17] = assay: Biodistribution in mouse kidney at 64.5 kBq, iv measured 10 mins post injection by gamma counting; type: ADME, organism-based; details: in vivo
Intestine [18] = assay: Biodistribution in mouse intestine at 64.5 kBq, iv measured 10 mins post injection by gamma counting; type: ADME, organism-based; details: in vivo
Spleen [19] = assay: Biodistribution in mouse spleen at 64.5 kBq, iv measured 10 mins post injection by gamma counting; type: ADME, organism-based; details: in vivo
Pancreas [20] = assay: Biodistribution in mouse pancreas at 64.5 kBq, iv measured 10 mins post injection by gamma counting; type: ADME, organism-based; details: in vivo
Heart [21] = assay: Biodistribution in mouse heart at 64.5 kBq, iv measured 10 mins post injection by gamma counting; type: ADME, organism-based; details: in vivo
Lung [22] = assay: Biodistribution in mouse lung at 64.5 kBq, iv measured 10 mins post injection by gamma counting; type: ADME, organism-based; details: in vivo
Stomach [23] = assay: Biodistribution in mouse stomach at 64.5 kBq, iv measured 10 mins post injection by gamma counting; type: ADME, organism-based; details: in vivo
Brain [24] = assay: Biodistribution in mouse brain at 64.5 kBq, iv measured 10 mins post injection by gamma counting; type: ADME, organism-based; details: in vivo
Bone [25] = assay: Biodistribution in mouse bone at 64.5 kBq, iv measured 10 mins post injection by gamma counting; type: ADME, organism-based, Bone element; details: in vivo
Blood [26] = assay: Biodistribution in mouse blood at 64.5 kBq, iv measured 30 mins post injection by gamma counting; type: ADME, organism-based; details: in vivo, 0.5 h
Liver [27] = assay: Biodistribution in mouse liver at 64.5 kBq, iv measured 30 mins post injection by gamma counting; type: ADME, organism-based; details: in vivo, 0.5 h
Kidney [28] = assay: Biodistribution in mouse kidney at 64.5 kBq, iv measured 30 mins post injection by gamma counting; type: ADME, organism-based; details: in vivo, 0.5 h
Intestine [29] = assay: Biodistribution in mouse intestine at 64.5 kBq, iv measured 30 mins post injection by gamma counting; type: ADME, organism-based; details: in vivo, 0.5 h
Spleen [30] = assay: Biodistribution in mouse spleen at 64.5 kBq, iv measured 30 mins post injection by gamma counting; type: ADME, organism-based; details: in vivo, 0.5 h
Pancreas [31] = assay: Biodistribution in mouse pancreas at 64.5 kBq, iv measured 30 mins post injection by gamma counting; type: ADME, organism-based; details: in vivo, 0.5 h
Heart [32] = assay: Biodistribution in mouse heart at 64.5 kBq, iv measured 30 mins post injection by gamma counting; type: ADME, organism-based; details: in vivo, 0.5 h
Lung [33] = assay: Biodistribution in mouse lung at 64.5 kBq, iv measured 30 mins post injection by gamma counting; type: ADME, organism-based; details: in vivo, 0.5 h
Stomach [34] = assay: Biodistribution in mouse stomach at 64.5 kBq, iv measured 30 mins post injection by gamma counting; type: ADME, organism-based; details: in vivo, 0.5 h
Brain [35] = assay: Biodistribution in mouse brain at 64.5 kBq, iv measured 30 mins post injection by gamma counting; type: ADME, organism-based; details: in vivo, 0.5 h
Bone [36] = assay: Biodistribution in mouse bone at 64.5 kBq, iv measured 30 mins post injection by gamma counting; type: ADME, organism-based, Bone element; details: in vivo, 0.5 h
Blood [37] = assay: Biodistribution in mouse blood at 64.5 kBq, iv measured 60 mins post injection by gamma counting; type: ADME, organism-based; details: in vivo, 1 h
Liver [38] = assay: Biodistribution in mouse liver at 64.5 kBq, iv measured 60 mins post injection by gamma counting; type: ADME, organism-based; details: in vivo, 1 h
Kidney [39] = assay: Biodistribution in mouse kidney at 64.5 kBq, iv measured 60 mins post injection by gamma counting; type: ADME, organism-based; details: in vivo, 1 h
Intestine [40] = assay: Biodistribution in mouse intestine at 64.5 kBq, iv measured 60 mins post injection by gamma counting; type: ADME, organism-based; details: in vivo, 1 h
Spleen [41] = assay: Biodistribution in mouse spleen at 64.5 kBq, iv measured 60 mins post injection by gamma counting; type: ADME, organism-based; details: in vivo, 1 h
Pancreas [42] = assay: Biodistribution in mouse pancreas at 64.5 kBq, iv measured 60 mins post injection by gamma counting; type: ADME, organism-based; details: in vivo, 1 h
Heart [43] = assay: Biodistribution in mouse heart at 64.5 kBq, iv measured 60 mins post injection by gamma counting; type: ADME, organism-based; details: in vivo, 1 h
Lung [44] = assay: Biodistribution in mouse lung at 64.5 kBq, iv measured 60 mins post injection by gamma counting; type: ADME, organism-based; details: in vivo, 1 h
Stomach [45] = assay: Biodistribution in mouse stomach at 64.5 kBq, iv measured 60 mins post injection by gamma counting; type: ADME, organism-based; details: in vivo, 1 h
Brain [46] = assay: Biodistribution in mouse brain at 64.5 kBq, iv measured 60 mins post injection by gamma counting; type: ADME, organism-based; details: in vivo, 1 h
Bone [47] = assay: Biodistribution in mouse bone at 64.5 kBq, iv measured 60 mins post injection by gamma counting; type: ADME, organism-based, Bone element; details: in vivo, 1 h
[48] = Octanol-phosphate buffer partition coefficient, log P of the compound at 0.37 MBq after 10 mins by gamma counting; type: physicochemical
[49] = molecular target: T1, Microtubule-associated protein tau; assay: Displacement of Thioflavin S from recombinant human tau expressed in Escherichia coli after 30 mins by fluorescence assay
[50] = Displacement of Thioflavin S from amyloid beta (1 to 42) aggregates after 30 mins by fluorescence assay
Homo sapiens [51] = species on record: Homo sapiens; assay: Selectivity ratio Ki for amyloid beta (1 to 42) aggregates to Ki for recombinant human tau
[52] = molecular target: T1, Microtubule-associated protein tau; assay: Binding affinity to recombinant human tau expressed in Escherichia coli assessed per nanomolar of protein after 30 mins by fluorescence assay; details: tested as the 18F-labelled form
[53] = Binding affinity to amyloid beta (1 to 42) aggregates assessed per nanomolar of protein after 30 mins by fluorescence assay; details: tested as the 18F-labelled form
[54] = molecular target: T1, Microtubule-associated protein tau; assay: Binding affinity to tau protein in human alzheimer's disease patient brain white matter at 92.5 kBq after 2 hrs by immunohistological staining; type: tissue-based; details: tested as the 18F-labelled form
[55] = molecular target: Amyloid-beta precursor protein (Homo sapiens) (UniProt P05067); assay: Binding affinity to amyloid beta (1 to 42) aggregates in human alzheimer's disease patient brain white matter at 92.5 kBq after 2 hrs by immunohistological staining; type: tissue-based; details: tested as the 18F-labelled form
Sequence of Amyloid-beta precursor protein (Homo sapiens) (P05067 whole entry): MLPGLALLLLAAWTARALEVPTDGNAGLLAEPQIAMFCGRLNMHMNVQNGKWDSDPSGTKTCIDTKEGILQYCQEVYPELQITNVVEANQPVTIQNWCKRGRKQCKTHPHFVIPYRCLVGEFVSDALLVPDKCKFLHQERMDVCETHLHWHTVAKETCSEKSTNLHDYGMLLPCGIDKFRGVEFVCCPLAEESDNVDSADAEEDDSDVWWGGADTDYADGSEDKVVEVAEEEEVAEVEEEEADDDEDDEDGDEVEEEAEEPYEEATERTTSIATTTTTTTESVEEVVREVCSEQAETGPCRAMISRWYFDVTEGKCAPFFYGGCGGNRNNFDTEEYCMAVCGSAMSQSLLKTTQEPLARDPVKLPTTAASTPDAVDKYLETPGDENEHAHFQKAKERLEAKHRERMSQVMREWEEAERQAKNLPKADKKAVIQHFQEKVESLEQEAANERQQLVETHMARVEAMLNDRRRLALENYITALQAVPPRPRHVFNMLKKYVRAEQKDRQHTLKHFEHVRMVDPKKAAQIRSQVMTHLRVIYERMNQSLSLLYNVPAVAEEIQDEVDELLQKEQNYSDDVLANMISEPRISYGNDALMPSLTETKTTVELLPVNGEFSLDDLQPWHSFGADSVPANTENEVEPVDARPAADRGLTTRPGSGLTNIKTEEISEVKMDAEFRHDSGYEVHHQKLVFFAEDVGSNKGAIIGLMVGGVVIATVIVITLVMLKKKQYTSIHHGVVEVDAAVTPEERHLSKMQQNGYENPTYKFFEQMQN

Homo sapiens [56] = species on record: Homo sapiens; assay: Binding affinity to neurofibrillary tangles in human alzheimer's disease patient brain at 92.5 kBq after 30 mins by immunohistological staining
Homo sapiens [57] = species on record: Homo sapiens; assay: Binding affinity to senile plaques in human alzheimer's disease patient brain at 92.5 kBq after 30 mins by immunohistological staining

- Kd [1]: 44.8 nM
- Kd [2]: 45.4 nM
- Drug uptake (Brain [3]): Not Active
- Drug uptake (Blood [4]): 3.04 % ID/g
- Drug uptake (Liver [5]): 20.2 % ID/g
- Drug uptake (Kidney [6]): 13.9 % ID/g
- Drug uptake (Intestine [7]): 2.94 % ID/g
- Drug uptake (Spleen [8]): 3.47 % ID/g
- Drug uptake (Pancreas [9]): 5.41 % ID/g
- Drug uptake (Heart [10]): 7.45 % ID/g
- Drug uptake (Lung [11]): 13.5 % ID/g
- Drug uptake (Stomach [12]): 1.11 %ID
- Drug uptake (Brain [13]): 4.28 % ID/g
- Drug uptake (Bone [14]): 1.88 % ID/g
- Drug uptake (Blood [15]): 1.83 % ID/g
- Drug uptake (Liver [16]): 19.3 % ID/g
- Drug uptake (Kidney [17]): 7.67 % ID/g
- Drug uptake (Intestine [18]): 4.99 % ID/g
- Drug uptake (Spleen [19]): 3.41 % ID/g
- Drug uptake (Pancreas [20]): 4.01 % ID/g
- Drug uptake (Heart [21]): 4.14 % ID/g
- Drug uptake (Lung [22]): 4.37 % ID/g
- Drug uptake (Stomach [23]): 1.42 %ID
- Drug uptake (Brain [24]): 4.26 % ID/g
- Drug uptake (Bone [25]): 1.82 % ID/g
- Drug uptake (Blood [26]): 2.19 % ID/g
- Drug uptake (Liver [27]): 13.1 % ID/g
- Drug uptake (Kidney [28]): 5.08 % ID/g
- Drug uptake (Intestine [29]): 14.4 % ID/g
- Drug uptake (Spleen [30]): 2.71 % ID/g
- Drug uptake (Pancreas [31]): 2.87 % ID/g
- Drug uptake (Heart [32]): 3.05 % ID/g
- Drug uptake (Lung [33]): 3.36 % ID/g
- Drug uptake (Stomach [34]): 2.69 %ID
- Drug uptake (Brain [35]): 3.47 % ID/g
- Drug uptake (Bone [36]): 1.82 % ID/g
- Drug uptake (Blood [37]): 2.68 % ID/g
- Drug uptake (Liver [38]): 9.32 % ID/g
- Drug uptake (Kidney [39]): 4 % ID/g
- Drug uptake (Intestine [40]): 22.9 % ID/g
- Drug uptake (Spleen [41]): 2.14 % ID/g
- Drug uptake (Pancreas [42]): 2.18 % ID/g
- Drug uptake (Heart [43]): 2.62 % ID/g
- Drug uptake (Lung [44]): 3.59 % ID/g
- Drug uptake (Stomach [45]): 3.37 %ID
- Drug uptake (Brain [46]): 2.53 % ID/g
- Drug uptake (Bone [47]): 1.92 % ID/g
- logP at 10 min [48]: 2.05
SMILES: CN(C)c1ccc(/N=N/c2nc3ccc(OCCOCCOCC[18F])cc3s2)cc1

- IC50 [49]: 256 nM
- Ki [49]: 13 nM
- IC50 [50]: 47.3 nM
- Ki [50]: 20 nM
- Ratio Ki (Homo sapiens [51]): 1.54
- Bmax [52]: 45.8 pmol
- Bmax [53]: 38.9 pmol
- Activity [54]: Active
- Activity [55]: Active
- Activity (Homo sapiens [56]): Active
- Activity (Homo sapiens [57]): Active
SMILES: CN(C)c1ccc(/N=N/c2nc3ccc(OCCOCCOCCF)cc3s2)cc1

- Ki [49]: 0.48 nM
- Ratio Ki (Homo sapiens [51]): 17.2
SMILES: CN(C)c1ccc(/N=N/c2nc3ccc(I)cc3s2)cc1

- Drug uptake (Brain [13]): 0.94 % ID/g
- Drug uptake (Brain [46]): 2.89 % ID/g
- logP at 10 min [48]: 3.84
SMILES: CN(C)c1ccc(/N=N/c2nc3ccc([125I])cc3s2)cc1
